Results taken from patent US5314914A, “Methods and compositions for combatting herpes viruses” (BioMega/Boehringer Ingelheim Research Inc., priority 1988, dated 1994).

Tests used:
[1] = molecular target: HSV-1 ribonucleotide reductase (Human alphaherpesvirus 1 strain 17, UniProt P08543+P10224); experiment: HSV-1 ribonucleotide reductase inhibition (reduction of CDP); type: biochemical, herpes simplex virus type 1 (strain F); conditions: for selective inhibition of the viral (HSV-1) ribonucleotide reductase over the cellular ribonucleotide reductase: HSV-1 versus hamster 96-V-2(600) ribonucleotide reductase
[2] = molecular target: T1, hamster 96-V-2(600) ribonucleotide reductase (Cricetulus griseus, UniProt G3I2K8+G3I3B7); experiment: Hamster 96-V-2(600) ribonucleotide reductase inhibition (reduction of CDP); type: biochemical, Chinese hamster; conditions: partially purified enzyme 40 μg, in the presence of adenosine triphosphate (4 mM) and magnesium chloride (11.5 mM)
T1 construct: obtained from an overproducing strain of a Chinese hamster lung cell line; endogenous in cells; host or cells: overproducing strain 96-V-2(600) of a Chinese hamster lung cell line; partially purified
Experimental: Hamster 96-V-2(600) ribonucleotide reductase (partially purified) was obtained from an overproducing strain of a Chinese hamster lung cell line as described by W. H. Lewis and P. R. Srinivasan, Mol. Cell Biol., 3, 1053 (1983).
Samples of the HSV-1 ribonucleotide reductase (65 μg with a specific activity of 26 units per mg) were mixed with increasing concentrations of the test compound, i.e. the naphthalene noted in the title of this example, in a series of tubes. Ribonucleotide reductase activity was assayed by monitoring the reduction of cytidine diphosphate (CDP) as described by Cohen et al., supra. The standard reaction mixture, in a final volume of 60 μl, contained: 50 mM, N-2-hydroxyethylpiperazine-N'-2-ethanesulfonic acid (pH 7.8); 4 mM NaF, 30 mM DL-dithiothreitol (DTT); 1 mM bacitracin, 54 μM CDP and 0.25 μCi of [^3 H]CDP. After 30 minutes of incubation at 37° C., the reaction was stopped by immersing the tube in boiling water for 4 minutes. The precipitate was removed by centrifugation. Nucleotides in the supernatant were converted to nucleosides by enzymatic hydrolysis. The deoxyribonucleosides were subsequently separated from the ribonucleosides by ascending polyethyleneimine-celulose chromatography. […] The results, shown in FIGURE 1, are expressed as a percentage of the activity obtained in the controls.

HSV-1 ribonucleotide reductase, sequence (P08543 whole entry): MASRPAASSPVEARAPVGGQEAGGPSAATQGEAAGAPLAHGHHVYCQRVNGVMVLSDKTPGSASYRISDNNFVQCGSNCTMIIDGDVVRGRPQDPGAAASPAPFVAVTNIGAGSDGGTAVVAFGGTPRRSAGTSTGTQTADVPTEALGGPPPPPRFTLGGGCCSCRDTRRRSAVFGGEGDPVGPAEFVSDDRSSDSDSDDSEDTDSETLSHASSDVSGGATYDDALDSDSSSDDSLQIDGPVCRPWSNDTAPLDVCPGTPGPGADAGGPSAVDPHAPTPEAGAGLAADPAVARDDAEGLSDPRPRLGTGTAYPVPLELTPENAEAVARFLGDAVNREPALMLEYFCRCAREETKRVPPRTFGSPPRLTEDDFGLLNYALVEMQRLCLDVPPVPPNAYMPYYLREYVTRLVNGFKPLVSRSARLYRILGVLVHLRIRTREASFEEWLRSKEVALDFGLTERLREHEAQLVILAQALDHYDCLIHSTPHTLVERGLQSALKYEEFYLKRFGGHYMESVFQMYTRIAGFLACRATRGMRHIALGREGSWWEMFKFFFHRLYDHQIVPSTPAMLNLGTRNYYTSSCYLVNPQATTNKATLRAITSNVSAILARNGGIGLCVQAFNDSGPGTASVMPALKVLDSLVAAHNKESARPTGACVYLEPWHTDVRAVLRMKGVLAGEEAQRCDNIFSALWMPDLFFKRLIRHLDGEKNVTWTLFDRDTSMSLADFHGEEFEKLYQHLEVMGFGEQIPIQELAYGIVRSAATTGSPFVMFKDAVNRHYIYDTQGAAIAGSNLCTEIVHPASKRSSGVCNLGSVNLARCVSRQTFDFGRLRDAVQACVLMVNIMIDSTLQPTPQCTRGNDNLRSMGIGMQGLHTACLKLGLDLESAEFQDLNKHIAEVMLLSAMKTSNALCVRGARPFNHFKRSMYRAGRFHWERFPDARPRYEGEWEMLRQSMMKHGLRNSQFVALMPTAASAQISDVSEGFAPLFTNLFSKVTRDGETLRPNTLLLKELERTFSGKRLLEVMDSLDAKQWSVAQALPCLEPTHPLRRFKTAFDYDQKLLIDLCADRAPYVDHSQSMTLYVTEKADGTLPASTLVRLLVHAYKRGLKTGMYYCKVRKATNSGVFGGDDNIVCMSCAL
HSV-1 ribonucleotide reductase, sequence (P10224 whole entry): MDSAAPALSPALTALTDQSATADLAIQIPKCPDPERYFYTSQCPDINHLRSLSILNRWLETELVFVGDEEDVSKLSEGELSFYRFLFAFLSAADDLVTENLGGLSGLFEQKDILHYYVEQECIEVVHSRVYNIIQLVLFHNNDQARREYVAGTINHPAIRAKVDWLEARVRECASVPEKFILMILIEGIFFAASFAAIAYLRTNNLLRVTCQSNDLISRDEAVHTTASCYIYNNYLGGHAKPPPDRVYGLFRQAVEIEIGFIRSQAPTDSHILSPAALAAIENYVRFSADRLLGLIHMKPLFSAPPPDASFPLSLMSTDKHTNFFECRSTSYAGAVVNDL
T1 sequence (G3I2K8 entry or part of it): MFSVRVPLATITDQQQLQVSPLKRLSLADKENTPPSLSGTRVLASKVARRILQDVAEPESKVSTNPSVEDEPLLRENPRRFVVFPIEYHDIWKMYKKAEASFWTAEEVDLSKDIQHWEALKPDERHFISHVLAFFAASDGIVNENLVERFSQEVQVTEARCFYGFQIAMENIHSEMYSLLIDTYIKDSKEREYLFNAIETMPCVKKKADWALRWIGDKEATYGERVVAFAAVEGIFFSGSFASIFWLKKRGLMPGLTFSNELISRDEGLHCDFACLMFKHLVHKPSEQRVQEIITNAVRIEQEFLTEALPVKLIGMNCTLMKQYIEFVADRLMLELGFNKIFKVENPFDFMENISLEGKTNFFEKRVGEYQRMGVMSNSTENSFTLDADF
T1 sequence (G3I3B7 entry or part of it): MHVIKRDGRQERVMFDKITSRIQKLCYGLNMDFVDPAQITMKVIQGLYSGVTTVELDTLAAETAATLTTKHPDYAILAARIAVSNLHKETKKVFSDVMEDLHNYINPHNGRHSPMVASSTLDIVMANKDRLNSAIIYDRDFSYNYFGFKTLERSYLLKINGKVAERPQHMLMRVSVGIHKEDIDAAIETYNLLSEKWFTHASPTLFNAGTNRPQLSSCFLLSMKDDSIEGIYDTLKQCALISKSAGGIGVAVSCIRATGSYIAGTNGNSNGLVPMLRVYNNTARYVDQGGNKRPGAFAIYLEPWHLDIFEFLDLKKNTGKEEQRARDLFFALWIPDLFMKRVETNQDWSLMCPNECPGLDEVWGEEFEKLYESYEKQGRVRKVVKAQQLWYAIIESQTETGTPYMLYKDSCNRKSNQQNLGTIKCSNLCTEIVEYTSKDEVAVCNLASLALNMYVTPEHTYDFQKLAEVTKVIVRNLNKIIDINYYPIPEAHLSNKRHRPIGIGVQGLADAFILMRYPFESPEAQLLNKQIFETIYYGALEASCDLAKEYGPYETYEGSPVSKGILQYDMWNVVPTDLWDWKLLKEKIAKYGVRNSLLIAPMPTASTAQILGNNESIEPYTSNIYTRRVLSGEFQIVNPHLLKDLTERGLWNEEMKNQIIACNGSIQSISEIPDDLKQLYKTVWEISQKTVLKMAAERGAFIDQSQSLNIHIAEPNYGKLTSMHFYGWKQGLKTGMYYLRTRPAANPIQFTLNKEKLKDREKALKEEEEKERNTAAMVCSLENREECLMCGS

Row | SMILES | selective inhibition of the viral (HSV-1) ribonucleotide reductase over the cellular ribonucleotide reductase [1] | IC50 [2] | inhibitory effect of increasing concentrations on HSV-1 ribonucleotide reductase activity (FIG. 1, percentage of control activity) ([1]; increasing concentrations of the test compound)
1 | COC1=C(OC)C(=O)c2ccccc2C1=O [2,3-dimethoxy-1,4-naphthalenedione] | selective inhibition |  | 
2 | CCOC1=C(OCC)C(=O)c2cc(Cl)ccc2C1=O [6-chloro-2,3-diethoxy-1,4-naphthalenedione] | selective inhibition |  | 
3 | CCCOC1=C(OCCC)C(=O)c2cc(Cl)ccc2C1=O [6-chloro-2,3-dipropoxy-1,4-naphthalenedione] | selective inhibition |  | 
4 | COC1=C(OC)C(=O)c2cc(Cl)ccc2C1=O [6-Chloro-2,3-dimethoxy-1,4-naphthalenedione] | selective inhibition | > 250 µM | progressively greater inhibitory effect
5 | COC1=C(OC)C(=O)c2cc(OC)ccc2C1=O [2,3,6-trimethoxy-1,4-naphthalenedione] | selective inhibition |  | 
6 | COC1=C(OC)C(=O)c2cc(C#N)ccc2C1=O [6-cyano-2,3-dimethoxy-1,4-naphthalenedione] | selective inhibition |  | 
